Measured values: US10329304B2, “Compounds and methods for inhibition of hedgehog signaling and phosphodiesterase” (Vanderbilt University, priority 2014, dated 2019)
Where two headings read alike, the source gives them in different places.

What was measured:
Gli1 transcription = assay: Sufu−/− mouse embryonic fibroblasts qRT-PCR; type: cell-based
Text: (§1) In light of EGM1's ability to halt Hh transcriptional activity at a node downstream of the negative regulator Sufu, and thus also downstream of Smo, we sought to confirm mode of action retention with our most promising analogs. Therefore, we employed Sufu−/− mouse embryonic fibroblasts (MEF) that display constitutively active transcription of Hh target genes Gli1 and Ptch1 and monitored the ability of our optimized analogs to repress signaling via quantitative reverse transcription-PCR (qRT-PCR). […] We then evaluated improved analogs from multiple structural classes including those from Table 1 with cyclohexylthiophene cores as well as from Table 13 with structurally distinct core modifications.
(§2) Sufu^−/− cells were seeded into 12-well plates at a density of 100,000 cells/well in D10 FBS and incubated for 24 hours. Small molecule solutions were prepared by adding the desired amount of compound from 10 mM DMSO stock to D0.5 FBS. Negative control was prepared by adding an equi-volume amount of DMSO to D0.5 FBS as compared to small molecule treated conditions. Cell plating medium was aspirated and replaced with 1 mL of prepared small molecule-containing media, and plates were incubated for 24 hours before proceeding to RNA isolation.
(§3) Cells were washed 1× with 1× phosphate-buffered saline (PBS) then RNA was isolated using the Qiagen RNeasy Mini Kit (Qiagen, Germantown, Md., USA) according to the manufacturer's protocol, eluting RNA from the spin column with 30 μL of RNase-free water. RNA was placed on ice and immediately subjected to reverse transcription. Remaining RNA was stored at −80° C.
(§4) Reverse transcription polymerase chain reaction (RT-PCR) was performed with the Applied Biosystems High Capacity cDNA Reverse Transcription Kit (ThermoFisher Scientific, Waltham, Mass., USA) using an Eppendorf MasterCycler. Each 20 μL reaction contained 0.5 μg of total RNA, 2 μL of 10×RT Buffer, 0.8 μL of 25×dNTP Mix (100 mM), 2 μL of 10×RT Random Primers, 1 μL of MultiScribe® Reverse Transcriptase (50 U/μL), 1 μL of Recombinant RNasin® Ribonuclease Inhibitor (40 U/μL) (Promega, Madison, Wis., USA), and nuclease-free water. Reverse transcription was performed with the following program: 25° C. for 10 minutes, 37° C. for 120 minutes, and 85° C. for 5 minutes. The cDNA was subjected to quantitative real-time PCR (Q-PCR) or stored at −20° C.
(§5) Quantitative real-time PCR was performed on an Applied Biosystems 7900 HT Fast Real Time PCR System in 384-well format. Each cDNA sample was assayed in triplicate with both probe of interest and control probe. Master mixes for each probe were prepared corresponding to 10 μL of Applied Biosystems TaqMan Universal PCR Master Mix (ThermoFisher Scientific, Waltham, Mass., USA), 1 μL of primer, and nuclease-free water corresponding to a volume providing 20 μL reactions when loading an average of 50 ng of cDNA. Quantitative real-time PCR was run with the following thermal cycling protocol: 50° C. for 2 min., 95° C. for 10 min., and 40 cycles of 95° C. for 15 seconds, 60° C. for 1 min., then fluorescence reading. The following FAM probes were purchased from Life Technologies (Carlsbad, Calif., USA): mouse GAPDH, Mm99999915_g1; mouse Gli1, Mm00494646_g1; mouse Ptch1, Mm01306905_m1.
(§6) Quantitative real-time PCR data for Hh signaling inhibition was quantitated using the ΔΔCt method. Control probe values were subtracted from probe of interest values to arrive at the ΔCt value. The ΔCt value was transformed by 2-^ΔCt to arrive at the ΔΔCt value. All ΔΔCt values were divided by the average negative control ΔΔCt value to provide percent Hh signaling activity. Percent inhibition values were derived by calculating the inverse of percent activity. Data is reported as mean±standard error of the mean (SEM), representing at least two biological replicates, each quantitated in triplicate.

[1] = tested on: Hedgehog signaling (TM3-Gli-Luc); assay: TM3-Gli-Luc luciferase reporter assay stimulated with 20 nM SAG; type: cell-based
Outline: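 TM3-Gli-Luc cells on 0.1% gelatin in DMEM/F12 with 2.5% FBS, treated 48 h with compound plus 20 nM SAG. Steady-Glo luminescence normalized to CellTiter-Glo viability, DMSO-only (no SAG) background subtracted, percent of SAG control. EC50 averaged from ≥2 independent days ±SEM.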

[2] = Lipophilic efficiency (LipE = pEC50 − cLogP) and cLogP
Protocol: Therefore, we prioritized phenotypic analog evaluation in the Gli-responsive luciferase reporter line TM3-Gli-Luc stimulated with 20 nM Smo agonist (SAG) while concurrently monitoring non-specific cellular toxicity. Additionally, lipophilic efficiency (LipE), a concurrent readout of a compound's potency (pEC50) and lipophilicity (cLogP) derived by subtracting the latter from the former, was utilized to optimize solubility properties (Table 12B), allowing for straightforward tracking of compounds with improvements in both parameters.

Ptch1 transcription = assay: Sufu−/− mouse embryonic fibroblasts qRT-PCR; type: cell-based; conditions: for inhibition at 10 µM: Mus musculus, Fibroblast, read-out: Sufu Null (Ptc) % Inh., 10 μM
Text: as §1, §2, §3, §4, §5, §6

zebrafish embryos = assay: Zebrafish embryo phenotypic assay (ZF); type: in vivo; conditions: wild-type embryonic zebrafish, dosed 5 hpf
Protocol: All zebrafish experiments were approved by Vanderbilt University Institutional Animal Care and Use Committee. Wild-type zebrafish of AB strain were maintained using standard protocols. Chemical screen for small molecules was performed as previously described. Briefly, pairs of zebrafish were mated, and fertilized eggs were arrayed in 96-well microtiter plates (5 embryos/well) containing 250 μl E3 water. At ˜4-hpf, small molecule library from Vanderbilt High Throughput Screening Facility was added to each well to the final concentration of 5 μM. Embryos were incubated at 28.5° C. until 24 and 48-hpf, when they were examined for gross morphologic changes indicative of disruption in embryonic patterning. A total of ˜30,000 compounds were screened.
ZF refers to wild-type embryonic zebrafish phenotypic assay involving dosing n=˜10 embryos in E3 egg water with compound from either a stock of 1 mM or 10 mM in DMSO at 5 hours post-fertilization and observing at 24, 48, and 72 hours post-fertilization.

Gli1 mRNA = assay: Hh % Inh.: SAG-induced Gli1 expression in C3H10T½ cells (qPCR); type: cell-based; conditions: Mus musculus, C3H 10T1/2, SAG-induced (100 nM), 24 hours; for inhibition at 1 µM: 1 pM [sic], read-out: C3H10T1/2 qPCR, Gh1 mRNA % Inh., 1 pM; for inhibition at 10 µM: 10 pM [sic], read-out: C3H10T1/2 qPCR, Gh1 mRNA % Inh., 10 pM; for EC50: read-out: C3H10T1/2 qPCR, Gh1 mRNA EC50
Protocol: Compounds are dosed from 10 mM DMSO stock solutions, and mRNA is isolated after 24 hours of compound treatment. mRNA is reverse transcribed to produce cDNA which is quantified by quantitative polymerase chain reaction (qPCR) in triplicate and levels are normalized to GAPDH levels. Data is presented as percent inhibition compared to positive control (SAG).

[3] = target: T1, Smo cyclopamine (Cyc) binding site (Homo sapiens, UniProt Q99835); assay: BODIPY-cyclopamine competition in HEK-293T cells overexpressing Smo
T1 construct: expressed in transfected cells; host or cells: HEK-293T
Protocol: Thus, HEK-293T cells overexpressing Smo were concurrently treated with 5 nM BODIPY-Cyc and molecules of interest.

PKA activation = assay: Immunostaining of autophosphorylated PKA catalytic subunit in NIH3T3 cells; type: cell-based; conditions: SAG-stimulated NIH3T3 cells, Egm 5 μM, Rolipram 10 μM
Protocol: NIH3T3 cells were plated on Poly-D-Lysine-coated glass coverslips and were cultured at 37° C., 5% CO2 in DMEM medium containing 10% fetal bovine serum until reaching 75% confluency. For one set of experiments, cells were then transfected with VSV-tagged PDE4D3 plasmid (gift from Miles Houslay, University of Glasgow, Scotland, UK) using Fugene6 transfection reagent (Roche, Indianapolis, Ind.) per manufacturer's protocol. Afterward, cell medium was replaced with DMEM/0.5% FBS containing either 5 μM eggmanone or DMSO and incubated overnight at 37° C., 5% CO2. Cells were fixed in 4% PFA at room temperature for 10 minutes prior to permeabilization, blocking, and staining with primary antibodies against Arl13b (gift of Tamary Caspary, Emory University, Atlanta, Ga.) and VSV (AbCam, Cambridge, Mass.). Fluorescent immunocytochemistry was performed using species-specific, secondary antibodies (Jackson Immunoresearch, West Grove, Pa.). For additional immunocytochemistry experiment, cells were treated with 20 nM SAG in the presence or absence of 5 uM Eggmanone. After overnight incubation, cells were washed with PBS, fixed for 10 minutes in 4% PFA, permeabilized 20 minutes at −20C with cold methanol, blocked with PBS/1% BSA, and incubated with primary antibodies to phospho-PKA catalytic domain Thr197 (Cell Signaling, Danvers, Mass.) and then to Arl13b. An additional overnight blocking step using unconjugated rabbit IgG was required between primary antibody incubations since both antibodies were produced in rabbit. Fluorescent conjugated secondary antibodies were used for visualization. Data analysis was performed in part through the use of the VUMC Cell Imaging Shared Resource.
Using ImageJ software (National Institutes of Health, developed by W. Rasband), a region of interest was created using the magic wand tool on Arl13b channel and transposed to the Gli2 channel, and integrated density was measured and reported as arbitrary units (a.u.). For phospho-PKA, using ImageJ, a line selection tool was used to select a line projected through the length of the primary cilia and an equal length beyond. The intensity values were potted and the cumulative florescence (area under the curve) was calculated for three cilia, blindly, for each treatment. These values for cilia and pericilia domain were analyzed by a two tailed students t-test. For correlation analysis, correlation coefficient for intensity of gamma-tubulin and phosphor-PKA were calculated and compared among treatments with students t-test.

[4] = 20 nM SAG, mean ± standard error of the mean, read-out: TM3-Gli-Luc EC50
[5] = TM3-Gli-Luc reporter line stimulated with 20 nM SAG, mean ± SEM, Table 14, read-out: TM3-Gli-Luc EC50
[6] = Calculated as pEC50 - cLogP, Molinspiration Cheminformatics
[7] = Table 9A, read-out: TM3 G8 Luciferase EC 50

T1 sequence (Q99835 28-787): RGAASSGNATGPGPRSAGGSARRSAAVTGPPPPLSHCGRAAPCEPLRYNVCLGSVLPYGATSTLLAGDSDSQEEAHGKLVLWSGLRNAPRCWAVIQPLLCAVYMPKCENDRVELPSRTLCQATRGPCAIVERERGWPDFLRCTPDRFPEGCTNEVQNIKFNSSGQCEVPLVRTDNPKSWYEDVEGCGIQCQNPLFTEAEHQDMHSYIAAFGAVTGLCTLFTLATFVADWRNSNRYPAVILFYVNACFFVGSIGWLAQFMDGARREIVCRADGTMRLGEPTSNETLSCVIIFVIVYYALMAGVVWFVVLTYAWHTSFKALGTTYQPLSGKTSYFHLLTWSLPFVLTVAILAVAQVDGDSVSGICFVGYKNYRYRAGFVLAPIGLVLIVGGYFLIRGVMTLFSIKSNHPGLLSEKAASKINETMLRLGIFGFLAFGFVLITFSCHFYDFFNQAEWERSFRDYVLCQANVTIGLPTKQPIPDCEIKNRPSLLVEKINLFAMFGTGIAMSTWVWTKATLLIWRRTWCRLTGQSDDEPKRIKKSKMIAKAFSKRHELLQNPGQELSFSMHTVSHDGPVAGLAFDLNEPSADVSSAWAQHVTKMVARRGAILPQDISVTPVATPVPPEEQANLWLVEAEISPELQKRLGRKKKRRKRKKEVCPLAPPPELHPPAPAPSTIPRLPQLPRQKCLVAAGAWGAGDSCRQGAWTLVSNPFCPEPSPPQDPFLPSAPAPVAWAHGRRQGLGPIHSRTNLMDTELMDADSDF

Compound	inhibition at 10 µM (Ptch1 transcription) [%]	EC50 [1, 7] [µM]	inhibition at 1 µM (Gli1 mRNA) [%]	inhibition at 10 µM (Gli1 mRNA) [%]	EC50 (Gli1 mRNA) [µM]	further results
O=C(CSc1nc2sc3c(c2c(=O)n1C1CC1)CCCC3)c1cccs1 [Formula 9b]						Transcriptional inhibition in the Sufu−/− cell line, in words (Gli1 transcription; Gli1 and Ptch1): general ability to inhibit transcriptional activity; EC50 [1, 4]: 1.89 ± 0.75 µM; EC50 [1, 5]: 1.89 ± 0.75 µM; LipE [2, 6]: 1.40; LipE ([2]; pEC50 - cLogP, Table 14): 1.40
O=C(CSc1nc2sc3c(c2c(=O)n1C1CC1)CCCC3)c1ccccc1 [JEH-1-163-1]	41.9	1.96				ZF Phenotype EC100 (zebrafish embryos): 0.81 µM
C=C(C)Cn1c(SCC(=O)N2CCCCC2)nc2sc3c(c2c1=O)CCCC3 [JEH-3-048-3]	-13.7	6.31	33.8	98.6		
C=C(C)Cn1c(SCC(=O)N2CCCCC2C)nc2sc3c(c2c1=O)CCCC3 (stereo not drawn) [JEH-3-069-2]	77.6	2.5	38.6	97.6	2.74	
C=C(C)Cn1c(SCC(=O)c2cccn2C)nc2sc3c(c2c1=O)CCCC3 [JEH-3-077]	52.1		47.1	89.1	1.13	
CCn1c(SCC(=O)c2cccs2)nc2sc3c(c2c1=O)CCCC3 [JEH-3-087-1]	21.6	12	39.5	96.1	1.37	
CCCn1c(SCC(=O)c2cccs2)nc2sc3c(c2c1=O)CCCC3 [JEH-3-087-2]	12.1	1.58	64.2	101	0.789	
CC1=C2C[C@H]3[C@@H](CC=C4CC(=O)CC[C@@]43C)[C@@H]2CC[C@]12O[C@@H]1C[C@H](C)CN(CCNC(=O)CCCCCNC(=O)CCc3ccccc3)[C@H]1[C@H]2C [KAAD-Cyc, KAAD-cyclopamine, reference compound]						Displacement of BODIPY-cyclopamine (5 nM) from Smo [3]: completely displaced BODIPY-Cyc
Cc1c(C(=O)Nc2ccc(N3C[C@@H](C)O[C@@H](C)C3)nc2)cccc1-c1ccc(OC(F)(F)F)cc1 [Sonidegib, reference compound]						inhibition of Ptch1 transcription (Ptch1 transcription; 0.1 μM): failed to inhibit transcription; inhibition of Gli1 transcription (Gli1 transcription; 0.1 μM): failed to inhibit transcription; Hh inhibitory activity / potency in words ([1]; 20 nM SAG): displayed expected potency; Hh inhibitory activity / potency in words ([1]; 20 nM SAG, listed as 2): low-nanomolar; EC50 [1, 4]: 0.0012 ± 0.0002 µM; EC50 [1, 5]: 0.0012 ± 0.0002 µM; LipE [2, 6]: 3.02; LipE ([2]; pEC50 - cLogP, Table 14): 3.02
CCCC(=O)Nc1ncnc2c1ncn2[C@@H]1O[C@@H]2COP(=O)(O)O[C@H]2[C@H]1OC(=O)CCC [dibutyril cAMP (DBA), dibutyril cAMP, reference compound]						PKA activation (phospho-PKA-C staining), spatial distribution (PKA activation): induce spatially localized PKA activation in the basal body; PKA activation (phospho-PKA-C staining), spatial distribution (PKA activation; listed as dibutyril cAMP): more diffuse increase in phospho-PKA staining
